The results in this text go back to article PMC7339578, “Multiple circulating alkaloids and saponins from intravenous Kang-Ai injection inhibit human cytochrome P450 and UDP-glucuronosyltransferase isozymes: potential drug–drug interactions” (Chinese Medicine, 2020).

The target of one data set is T1, CYP2C8 (Homo sapiens, UniProt P10632).
T1 sequence (P10632 1-490): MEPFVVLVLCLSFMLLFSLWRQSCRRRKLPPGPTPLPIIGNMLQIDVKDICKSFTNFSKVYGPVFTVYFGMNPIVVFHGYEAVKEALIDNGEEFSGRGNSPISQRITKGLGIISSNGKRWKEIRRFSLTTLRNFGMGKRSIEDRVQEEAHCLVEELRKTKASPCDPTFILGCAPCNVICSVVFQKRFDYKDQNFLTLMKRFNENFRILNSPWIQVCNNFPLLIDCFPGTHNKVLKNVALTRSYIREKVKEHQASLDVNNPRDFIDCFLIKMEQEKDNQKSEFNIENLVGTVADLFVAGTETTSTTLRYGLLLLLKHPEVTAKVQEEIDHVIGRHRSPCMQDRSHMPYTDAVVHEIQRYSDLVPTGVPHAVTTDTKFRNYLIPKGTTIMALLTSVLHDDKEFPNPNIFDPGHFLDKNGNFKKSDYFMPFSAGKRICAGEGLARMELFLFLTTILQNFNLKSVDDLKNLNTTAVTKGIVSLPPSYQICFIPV
The data set is described as follows: Inhibition of recombinant CYP2C8 (probe paclitaxel). It counts as in vitro ADME. The following applies: recombinant isozyme; mean ± SD of triplicate; unit not given (IC50 classes in μM); read-out: IC50 towards CYP2C8. The method, then:
In this study, phenacetin (100 μM), coumarin (100 μM), bupropion (100 μM), paclitaxel (60 μM), tolbutamide (200 μM), mephenytoin (100 μM), chlorzoxazone (200 μM) and nifedipine (40 μM) have been used as the probe substrates for CYP1A2, 2A6, 2B6, 2C8, 2C9, 2C19, 2E1 and 3A4, respectively.

Another data set deals with T2, UGT2B7 (Homo sapiens, UniProt P16662).
T2 sequence (P16662 24-529): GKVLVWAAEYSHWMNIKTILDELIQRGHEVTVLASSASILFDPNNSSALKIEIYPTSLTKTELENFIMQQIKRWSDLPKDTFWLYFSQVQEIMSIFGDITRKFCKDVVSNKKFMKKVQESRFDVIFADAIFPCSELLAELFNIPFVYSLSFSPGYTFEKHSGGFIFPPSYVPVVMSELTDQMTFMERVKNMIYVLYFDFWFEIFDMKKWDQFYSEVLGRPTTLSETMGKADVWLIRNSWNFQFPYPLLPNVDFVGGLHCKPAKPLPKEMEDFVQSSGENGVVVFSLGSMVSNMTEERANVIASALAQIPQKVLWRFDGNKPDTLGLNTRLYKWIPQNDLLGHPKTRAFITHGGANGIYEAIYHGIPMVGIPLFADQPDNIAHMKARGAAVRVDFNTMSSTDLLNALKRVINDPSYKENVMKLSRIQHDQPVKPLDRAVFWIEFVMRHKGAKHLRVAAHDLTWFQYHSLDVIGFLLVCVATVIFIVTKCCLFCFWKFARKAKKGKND
Kind of data set: Inhibition of expressed UGT2B7 (probe 4-MU). The data set is classed as in vitro ADME. The following applies: recombinant isozyme; mean ± SD of triplicate; unit not given (IC50 classes in μM); read-out: IC50 towards UGT2B7. The procedure: After centrifugation (13,800g, 10 min), the supernatant (8 μL) was obtained for determination by UHPLC system.
Similarly, β-estradiol (60 μM), propofol (40 μM) and 4-MU (350 μM) were typically used as the substrates for UGT1A1, 1A9 and 2B7, respectively. After optimization of incubation conditions (Additional file 1: Fig. S2), the protein concentrations for UGT1A1, 1A9, and 2B7 were 0.125, 0.05, and 0.05 mg/mL, respectively.

Data set [1] is described as follows: Urinary (renal) excretion in rats after a 30-min infusion of Kang-Ai injection. The data set is classed as in vivo, Sprague–Dawley rats. The settings on record: rat urine + bile, 0–12 h; Kang-Ai injection 6 mL/kg iv. An outline of the steps: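 Urine collected in metabolic cages at 0–4, 4–8, 8–12 h and bile at 0–3, 3–6, 6–9, 9–12 h after infusion start, weighed and frozen at −80 °C. Non-compartmental analysis; CLR and CLB as cumulative urinary or biliary amount divided by plasma AUC0-∞, fe-U and fe-B as cumulative amount/dose; mean ± SD (n = 3).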

Data set [2] is described as follows: Plasma pharmacokinetics in rats after a 30-min intravenous infusion of Kang-Ai injection. It counts as in vivo, Sprague–Dawley rats. The method in brief: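 Fasted male Sprague–Dawley rats (250 ± 20 g) got a single 30-min tail-vein infusion of Kang-Ai injection at 6 mL/kg. Jugular blood was sampled from 5 min to 12 h for plasma. Parameters came from non-compartmental analysis (trapezoidal AUC), n = 3.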

One may read the IC50 as the concentration that inhibits the measured activity by half. As a reminder, the Cmax is the maximum level reached in the sampled fluid or tissue. On to `CC(C)(O)[C@@H]1CC[C@](C)([C@H]2[C@@H](O)C[C@@]3(C)[C@@H]4C[C@H](O[C@@H]5O[C@H](CO)[C@@H](O)[C@H](O)[C@H]5O)[C@H]5C(C)(C)[C@@H](O[C@@H]6OC[C@@H](O)[C@H](O)[C@H]6O)CC[C@@]56C[C@@]46CC[C@]23C)O1` [Compound B2, Astragaloside IV], for which the IC50 on CYP2C8 and on UGT2B7 was more than 100 µM each time. In data set [1], the “fraction of dose excreted unchanged via renal plus hepatobiliary excretion (sum of fe-U and fe-B)” value is given as “about 25%”. In data set [2] (rat plasma, 30-min iv infusion of Kang-Ai injection 6 mL/kg), the t1/2 was determined as 1.64 ± 0.26 h. In data set [2] (rat plasma, 30-min iv infusion of Kang-Ai injection 6 mL/kg, read-out: Cmax), the Cmax was determined as 2360 ± 252 nM. Further, the “VSS (Vd)” value in data set [2] (rat, Kang-Ai injection 6 mL/kg iv) was less than 0.1 L/kg.
